Experimental data taken from patent publication US20140243348A1, “COMPOSITIONS AND METHODS FOR TREATING HERPES VIRUSES” (President and Fellows of Harvard College, priority 2011, published 2014).

How the values were obtained:
wild type HSV-1 = assay: HSV yield reduction assay (plaque assay) with HIV integrase inhibitors; format: cell-based; settings: 100 μM; FIG. 6
Protocol: At 48 hours post infection, viral yield samples were harvested and the yield was determined by plaque assay. Values are presented as the percent yield remaining, relative to the DMSO vehicle control treatment.
Cells were infected with wild type HSV-1 at a multiplicity of infection of 0.01 plaque-forming units per cell and treated with the indicated concentration of the HIV integrase inhibitor specified. At 48 hours post infection, viral yield samples were harvested and the yield was determined by plaque assay. Values are presented as the percent yield remaining, relative to the DMSO vehicle control treatment.

HCMV UL89 = HCMV UL89 (Human cytomegalovirus, UniProt P16732); settings: cited from earlier work
HSV-1 KOS virus = assay: Screen of 118-D-24 derivatives on HSV-1 KOS replication in Hep2 cells; format: cell-based; settings: 250 μM, MOI=0.01, 48 hours, FIG. 12
Protocol: To evaluate the effects of 118-D-24 derivatives on HSV replication, a panel of derivatives (Table 1) (Zhao, X. Z., 2008, J. Med. Chem., vol. 51, pages 251-259) were screened for their ability to inhibit HSV-1 KOS virus replication in Hep2 cells. Hep2 cells were plated in a 6-well plate and incubated overnight to reach confluency. The cells were then inoculated with HSV-1 KOS virus at MOI=0.01 for 1 hour. Following inoculation, the virus inoculum was replaced with DMEV medium containing 118-D-24 or a derivative of 118-D-24. After 48 hours, samples were harvested by adding an equal volume of 10% non-fat milk and immediately frozen at −80° C. Samples were freeze-thawed three times to rupture the cell membranes and allow the release of virus. Virus titers were determined by titration on Vero cells. The 100% yield represents the viral titer in samples without drug treatment. […] Hep2 cells or (FIG. 14A) or HFF cells (FIG. 14B) were infected with HSV-1 virus (KOS strain) at MOI of 0.01. Samples were then processed and percent yield remaining values were calculated. EC50 and EC90 values were calculated using nonlinear regression curve fit with a variable slope. GaraphPad Prism 5 software was used for all analyses. (FIG. 14C) Cytotoxicity of XZ45 on the viability of Hep2 cells during a 48-hour incubation period was evaluated using the Promega cell titer glo assay, as described by the manufacturer. The reported values are percent […] remaining relative to the […] from cells grown in media containing DMSO alone. CC50 value was determined as described above. FIGS. 14A and 14B show the effects of XZ45 on HSV-1 replication in Hep2 cells (14A) and normal human foreskin fibroblasts (14B) and the cytotoxicity of XZ45 in Hep2 cells is shown in FIG. 14C.

[1] = system: HSV-1 strain KOS, strain F; assay: XZ45 viral yield assay, HSV-1; format: cell-based; settings: Hep2 or HFF cells, 48 hours; FIG. 15
Protocol: (§1) Hep2 cells were infected with HSV-1 strain KOS, strain F, or HSV-2 strain G at MOI of 0.01. The infected cells were grown in media containing increasing concentrations of XZ45 or DMSO for 48 hours. Samples were harvested and viral yield was determined by plaque assay on Vero cells. The reported values are percent yield remaining relative to cells grown in media containing DMSO alone (FIG. 15A). Hep2 cells (FIG. 15B) or HFF cells (FIG. 15C) were infected with HSV-1 virus (KOS strain) at MOI of 10 or 0.01 or with human cytomegalovirus (HCMV) (FIG. 16). Samples were then processed and percent yield remaining values were calculated as describe above.

HSV-2 strain G = assay: XZ45 viral yield assay, HSV-2; format: cell-based; settings: Hep2 cells, MOI 0.01, 48 hours; FIG. 15A
Protocol: as §1

[2] = system: human cytomegalovirus (HCMV); assay: XZ45 viral yield assay, HCMV; format: cell-based; settings: FIG. 16
Protocol: as §1

HSV-1 KOS viral DNA = assay: XZ45 viral DNA synthesis (real-time PCR) in Hep2 cells; format: cell-based; settings: 10 μM XZ45, MOI=10, FIG. 17A
Protocol: (§2) Hep2 cells were infected with HSV-1 KOS at an MOI=10 in the presence or absence of 10 μM XZ45. Total DNA was harvested at the times indicated, and viral DNA levels in each sample were determined by real-time PCR and were normalized to the levels of cellular DNA. […] Hep2 cells were infected with HSV-1 KOS in the presence or absence of 10 μM XZ45. Lysates were prepared for immunoblotting at the indicated times. Polypeptides were resolved by SDS-PAGE, transferred to a PVDF membrane, and probed for representative immediate-early (ICP27), early (ICP8), and late (gC) gene products.

[3] = system: HSV-1 KOS late (gC) gene products; assay: XZ45 viral gene expression by immunoblotting in Hep2 cells; format: cell-based; settings: 10 μM XZ45, FIG. 17B
Protocol: as §2

ICP8 [4] = target: T1, ICP8 (Human herpesvirus 1, UniProt P17470); assay: ssDNA binding by ICP8 (EMSA, ssDNA beads pull down, ssDNA-cellulose); settings: three assays; FIG. 18A-18C
Protocol: The effect of XZ45 on ssDNA binding by ICP8 was measured by EMSA assay with purified ICP8 protein using ^32P-labled polynucleotide ssDNA probe (FIG. 18A); ssDNA beads pull down assay (FIG. 18B), and ICP8 binding to ssDNA-cellulose (FIG. 18C).

HSV recombination = HSV recombination in Hep2 cells coinfected with 8LacZ and hr99; format: cell-based; settings: 20 hours after infection, compared to PAA, FIG. 19
Protocol: To test the effect of XZ45 on HSV recombination during viral replication, 8LacZ (deletion of ul29) and hr99 (deletion of ul5) virus were used to coinfect Hep2 cells in the presence of XZ45 or PAA. At 20 hours after infection, samples were harvested and progeny virus were tittered on Vero cells and V529 cells to determine the viral titer of recombinated virus and total virus. The recombination rate reflects the ratio between the titer of recombinated virus and total virus.

ICP8 [5] = target: T1, ICP8; assay: D-loop assay of ICP8 mediated recombination; format: biochemical; settings: 0, 10, 20, or 40 μM XZ45; FIG. 20
Protocol: To further test the effect of XZ45 on ICP8 mediated recombination a D-loop assay was used. A double stranded DNA probe was mixed with a single stranded DNA oligonucleotide in the presence or absence of ICP8 with 0, 10, 20, or 40 μM XZ45. Following incubation, the reaction products were analyzed by electrophoresis through a native gel.

T1 sequence (P17470 whole entry): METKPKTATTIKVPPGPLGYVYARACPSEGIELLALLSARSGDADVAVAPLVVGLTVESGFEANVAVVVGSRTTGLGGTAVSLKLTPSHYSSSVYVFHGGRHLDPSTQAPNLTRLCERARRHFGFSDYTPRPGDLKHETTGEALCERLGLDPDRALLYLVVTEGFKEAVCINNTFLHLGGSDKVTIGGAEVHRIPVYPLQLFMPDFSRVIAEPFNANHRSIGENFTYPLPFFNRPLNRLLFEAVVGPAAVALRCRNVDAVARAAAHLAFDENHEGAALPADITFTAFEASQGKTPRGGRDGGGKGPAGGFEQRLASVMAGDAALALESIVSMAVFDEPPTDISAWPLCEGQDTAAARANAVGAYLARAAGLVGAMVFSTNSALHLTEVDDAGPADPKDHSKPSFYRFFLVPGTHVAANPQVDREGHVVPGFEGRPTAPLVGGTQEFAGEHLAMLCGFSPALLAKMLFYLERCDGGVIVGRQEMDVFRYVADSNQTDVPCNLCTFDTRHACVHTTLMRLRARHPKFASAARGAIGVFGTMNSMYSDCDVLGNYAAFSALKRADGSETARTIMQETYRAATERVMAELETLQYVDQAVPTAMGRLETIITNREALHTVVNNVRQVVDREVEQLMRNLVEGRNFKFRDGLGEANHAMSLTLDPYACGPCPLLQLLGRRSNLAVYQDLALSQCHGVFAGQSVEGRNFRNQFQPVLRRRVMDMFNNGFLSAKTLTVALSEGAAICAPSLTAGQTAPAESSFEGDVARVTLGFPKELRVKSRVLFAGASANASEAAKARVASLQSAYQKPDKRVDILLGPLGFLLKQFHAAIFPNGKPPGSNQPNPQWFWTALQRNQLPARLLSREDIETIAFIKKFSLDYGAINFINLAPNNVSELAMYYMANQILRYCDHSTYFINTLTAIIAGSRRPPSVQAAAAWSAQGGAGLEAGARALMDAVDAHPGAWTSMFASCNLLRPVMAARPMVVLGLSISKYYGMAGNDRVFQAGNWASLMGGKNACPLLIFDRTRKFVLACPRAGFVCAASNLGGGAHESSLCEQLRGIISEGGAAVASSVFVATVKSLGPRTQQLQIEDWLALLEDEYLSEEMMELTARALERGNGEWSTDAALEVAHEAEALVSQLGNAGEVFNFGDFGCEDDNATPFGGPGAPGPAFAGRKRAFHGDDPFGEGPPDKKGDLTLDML
Chain of HCMV UL89 (P16732 whole entry): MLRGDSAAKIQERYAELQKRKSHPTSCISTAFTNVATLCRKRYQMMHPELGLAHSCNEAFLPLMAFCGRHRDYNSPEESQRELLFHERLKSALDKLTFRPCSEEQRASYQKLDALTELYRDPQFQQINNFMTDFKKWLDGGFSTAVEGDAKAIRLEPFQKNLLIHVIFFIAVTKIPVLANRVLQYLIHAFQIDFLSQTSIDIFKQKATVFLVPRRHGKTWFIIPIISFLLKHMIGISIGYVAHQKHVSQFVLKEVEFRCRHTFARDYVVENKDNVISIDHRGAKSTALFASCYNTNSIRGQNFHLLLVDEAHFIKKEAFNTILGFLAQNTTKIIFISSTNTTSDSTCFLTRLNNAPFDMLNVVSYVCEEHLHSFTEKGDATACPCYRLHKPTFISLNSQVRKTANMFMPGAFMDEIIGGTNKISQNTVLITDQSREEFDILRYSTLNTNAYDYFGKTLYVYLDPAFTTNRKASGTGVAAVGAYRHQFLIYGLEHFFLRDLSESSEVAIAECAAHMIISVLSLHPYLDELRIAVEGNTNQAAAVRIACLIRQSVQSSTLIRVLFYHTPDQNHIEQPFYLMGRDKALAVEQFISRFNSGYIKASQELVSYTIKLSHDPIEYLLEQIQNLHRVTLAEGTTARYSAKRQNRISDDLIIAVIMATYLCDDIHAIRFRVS

Question: What does the source list for `Cc1nnc(C(=O)NC(C)(C)c2nc(C(=O)NCc3ccc(F)cc3)c(O)c(=O)n2C)o1` [Raltegravir]?
Answer: reduction of HSV viral yield (wild type HSV-1): greater than 96%; HCMV UL89 activity (HCMV UL89): inhibit HCMV UL89 activity

Question: With `O=C(NNC(=O)c1cccc(O)c1O)c1cccc(O)c1O` [XZ15] as the compound, how does the “viral yield (in words)” value (HSV-1 KOS virus) read?
Answer: The value was “significant reductions in viral yield”.

Question: With `O=C(NNC(=O)c1cccc(O)c1O)c1ccccc1O` [XZ45] as the compound, how does the “viral yield (in words)” value (HSV-1 KOS virus) read?
Answer: Its value is “significant reductions in viral yield”.

Question: And the “replication of HSV-1” value [1]?
Answer: The value was “inhibits the replication”.

Question: What about the “replication of HSV-2” value (HSV-2 strain G) of the same compound?
Answer: The value was “inhibits the replication”.

Question: And the “replication of HCMV” value [2]?
Answer: The value was “inhibits the replication”.

Question: What about the “viral DNA synthesis” value (HSV-1 KOS viral DNA) of the same compound?
Answer: The value was “Inhibits Viral DNA Synthesis”.

Question: What about the “expression of the late gene (gC) products” value [3] of the same compound?
Answer: The value was “significantly inhibited”.

Question: And the “ssDNA binding by ICP8” value (ICP8 [4])?
Answer: The value was “does not affect ssDNA binding”.

Question: What about the “HSV recombination (recombination rate)” value (HSV recombination) of the same compound?
Answer: Its value is “significantly inhibited HSV recombination”.

Question: And the “ICP8 mediated formation of D-loops” value (ICP8 [5])?
Answer: The value was “inhibited the ICP8 mediated formation of D-loops”.

Question: Which “viral yield (in words)” value (HSV-1 KOS virus) does the source give for `O=C1c2c(ccc(O)c2O)CN1N1Cc2ccc(O)c(O)c2C1=O` [XZ48] here?
Answer: The value was “significant reductions in viral yield”.

Question: Which “viral yield (in words)” value (HSV-1 KOS virus) does the source give for `O=C(NN1Cc2ccc(O)c(O)c2C1=O)c1cccc(O)c1O` [XZ49] here?
Answer: The value was “significant reductions in viral yield”.

Question: For `O=C1c2c(ccc(O)c2O)CN1N1C(=O)c2ccc(O)c(O)c2C1=O` [XZ50], which “viral yield (in words)” value (HSV-1 KOS virus) is on record?
Answer: Its value is “significant reductions in viral yield”.

Question: For `[N-]=[N+]=NCc1cccc(CN2Cc3ccc(O)c(O)c3C2=O)c1` [XZ99], which “viral yield (in words)” value (HSV-1 KOS virus) is on record?
Answer: The value was “significant reductions in viral yield”.

Question: Which “viral yield (in words)” value (HSV-1 KOS virus) does the source give for `[N-]=[N+]=NCc1cccc(CN2C(=O)c3ccc(O)c(O)c3C2=O)c1` [XZ100] here?
Answer: The value was “significant reductions in viral yield”.
